According to paper PMC7562955 (Nature Communications, 2020):

Biological target: T1, human TLR8 (Homo sapiens, UniProt Q9NR97)
T1 construct: host or cells: HEK293 (TLR8/NF-κB/SEAPorter)
T1 sequence (Q9NR97 27-1041): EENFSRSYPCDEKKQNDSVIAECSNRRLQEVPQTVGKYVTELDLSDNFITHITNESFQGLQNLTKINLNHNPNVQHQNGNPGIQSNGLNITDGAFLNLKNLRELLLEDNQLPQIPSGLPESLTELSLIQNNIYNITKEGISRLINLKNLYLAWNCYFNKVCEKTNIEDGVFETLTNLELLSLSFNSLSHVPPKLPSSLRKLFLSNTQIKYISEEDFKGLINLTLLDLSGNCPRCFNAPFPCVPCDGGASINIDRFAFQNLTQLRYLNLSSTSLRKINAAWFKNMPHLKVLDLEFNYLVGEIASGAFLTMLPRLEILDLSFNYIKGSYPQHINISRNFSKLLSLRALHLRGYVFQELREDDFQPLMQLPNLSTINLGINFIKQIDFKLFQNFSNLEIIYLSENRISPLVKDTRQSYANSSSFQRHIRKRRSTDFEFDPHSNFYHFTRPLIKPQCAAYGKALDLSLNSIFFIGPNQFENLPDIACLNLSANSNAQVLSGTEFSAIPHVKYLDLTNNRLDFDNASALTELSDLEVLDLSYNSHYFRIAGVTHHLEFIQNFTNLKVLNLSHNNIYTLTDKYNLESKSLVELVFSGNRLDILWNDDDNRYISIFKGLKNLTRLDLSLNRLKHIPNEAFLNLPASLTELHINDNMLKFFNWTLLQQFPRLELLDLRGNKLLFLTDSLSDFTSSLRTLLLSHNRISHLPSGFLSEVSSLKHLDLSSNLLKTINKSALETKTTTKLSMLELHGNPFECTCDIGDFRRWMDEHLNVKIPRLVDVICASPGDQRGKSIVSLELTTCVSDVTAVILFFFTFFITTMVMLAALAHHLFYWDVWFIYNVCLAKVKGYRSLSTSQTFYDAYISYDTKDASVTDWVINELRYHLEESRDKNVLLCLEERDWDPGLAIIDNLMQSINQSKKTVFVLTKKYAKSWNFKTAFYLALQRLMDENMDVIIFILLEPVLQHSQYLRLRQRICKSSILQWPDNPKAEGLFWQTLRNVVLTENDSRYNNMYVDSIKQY
Assay: Human TLR8 reporter gene inhibitory activity assay (NF-κB/SEAP HEK293)
Type: cell-based
Set-up: key to human TLR8 activity, reporter signal: SEAP activity as absorbance at 405 nm
Conditions: for human TLR8 activity, reporter signal: R848 30 μM
Experimental: Compounds were dissolved in dimethyl sulfoxide. Before stimulation with compound, Human TLR7 reporter cell line (TLR7/NF-κB/SEAPorter^TM HEK293 cell, Novus Biological, USA), human TLR8 reporter cell line (TLR8/NF-κB/SEAPorter^TM HEK293 cell, Novus Biological), and human TLR9 reporter cell line (TLR9/NF-κB/SEAPorter^TM HEK293 cell, Novus Biological) were seeded in 96-well microtiter plate (AGC techno glass, Japan) at 5 × 10^4 cells/well in DMEM (GIBCO, United Kingdam) with 10 % fetal bovine serum (GIBCO), and 10 ug/ml Blastcidin S HCl (GIBCO) and incubated at 37 °C in 5% CO2. […] The plates were then incubated an additional 20 ± 1 h at 37 °C in 5% CO2 and then the secreted embryonic alkaline phosphatase (SEAP) activity was measured as activation of human TLR7, 8, and 9. The SEAP activity was evaluated as follows: pNPP (Invitrogen, USA) was added to the incubated sample (50 μl/well); after 15 min, 4 M sodium hydroxide solution (nacalai tesque, Japan) was added thereto (50 μl/well) to quench the reaction; and the absorbance of each sample was measured at 405 nm with microplate reader SpectraMax M4 (Molecular Devices, USA).

Row | inhibition of TLR8 | Compound | human TLR8 activity, reporter signal (compound 0.0001 nM (as headed)) | human TLR8 activity, reporter signal (compound 0.001 nM (as headed)) | human TLR8 activity, reporter signal (compound 0.003 nM (as headed)) | human TLR8 activity, reporter signal (compound 0.01 nM (as headed)) | human TLR8 activity, reporter signal (compound 0.03 nM (as headed)) | human TLR8 activity, reporter signal (compound 0.1 nM (as headed)) | human TLR8 activity, reporter signal (compound 0.3 nM (as headed)) | human TLR8 activity, reporter signal (compound 1 nM (as headed)) | human TLR8 activity, reporter signal (compound 3 nM (as headed)) | human TLR8 activity, reporter signal (compound 10 nM (as headed)) | human TLR8 activity, reporter signal (compound 30 nM (as headed)) | human TLR8 activity, reporter signal (compound 100 nM (as headed))
1 | without causing any inhibition | CCCCOc1nc(N)c2nc(-c3cccnc3)n(Cc3ccccc3)c2n1 [Cpd-5] | 2.52 | 2.344 | 2.316 | 2.3178 | 2.3193 | 2.309 | 2.404 | 2.342 | 2.269 | 2.216 | 2.0417 | 2.1673
2 |  | CCOc1nc(N)c2nc(-c3cncc(F)c3)n(Cc3ccc(CN4C[C@@H]5C[C@H]4CN5C)cc3)c2n1 [Cpd-6] | 2.3942 | 2.34 | 2.276 | 2.199 | 2.181 | 2.241 | 2.31 | 2.218 | 2.159 | 2.04 | 1.859 | 1.331
3 |  | CCOc1nc(C)c2nc(-c3cncc(F)c3)n(Cc3ccc(CN4C[C@@H]5C[C@H]4CN5C)cc3)c2n1 [Cpd-7] | 2.3942 | 2.221 | 2.201 | 2.199 | 2.25 | 2.186 | 2.297 | 2.272 | 2.178 | 2.071 | 1.909 | 1.678
